# Where two headings read alike, the source gives them in different places.
# How the values were obtained:
# [1] = tested on: hippocampal cGMP levels; test: Hippocampal cGMP assay after foot shock; type: in vivo, mice
# Experimental: The hippocampal samples were extracted and snap frozen in liquid nitrogen. Levels of cGMP were quantitated by Enzyme Immunoassay procedure (Cayman Chemical Company, Item no. 581021) following the manufacturer's guidelines in duplicate. cGMP levels were normalized with the protein concentration calculated using BCA Protein Assay Reagent (Thermo Scientific).
# cGMP levels in adult mice after treatment with compound H were measured. In a series of preliminary experiments, foot shock induces an immediate increase in cGMP levels in the hippocampus (FIG. 1). Concentration of cGMP was measured by enzyme immunoassay. Basal represents cGMP levels without foot shock. Values are the mean of duplicate determinations. Error bars show S.E.M. (n=3 per group); *p<0.01; ^‡p=0.033.
# [2] = tested on: LTP at the CA3-CA1 connection of hippocampal slices; test: Long-term potentiation in hippocampal slices, compound in bath perfusion; design: species or system mice; conditions: 50 nM bath perfusion
# [3] = tested on: APP/PS1 mice; test: 2-day radial arm water maze (reference memory); type: in vivo; conditions: 3 mg/kg i.p. for 3 weeks
# Experimental: The radial arm water maze task, a hybrid of the classic Morris Water Maze and the radial arm land maze, was performed as described in J. Alamed, D. M. Wilcock, D. M. Diamond, M. N. Gordon, D. Morgan, Two-day radial-arm water maze learning and memory task; robust resolution of amyloid-related memory deficits in transgenic mice, Nat. Prot. 1 (2006) 1671-1679, herein incorporated by reference in its entirety. The mouse had to swim in 6 alleys (arms) radiating from a central area until it found a hidden (submerged) platform at the end of one of the arms, based on visual cues placed in the room. The first day of the protocol was a training day on which mice were trained to identify the platform location by alternating between a visible and a hidden platform in a goal arm. The final 3 trials on that day and all 15 trials on day 2 used a hidden escape platform to force mice to use spatial cues to identify the location of the goal arm. […] The number of incorrect arm entries (entries to arms with no platform) was counted. […] Failure to select an arm after 15 sec was counted as an error and the mouse was returned to the start arm. […] For data analysis, averages for each mouse were calculated using blocks of 3 trials. […]
# [4] = Pharmacokinetic study in mice; type: in vivo; conditions: 25 mg/kg i.p.
# [5] = Acute toxicity study with histology; type: in vivo; conditions: 120 or 240 mg/kg, i.p.
# Text: Brain, muscle, kidney, and liver were harvested from each mouse, and tissue from each organ was examined histologically by a board-certified pathologist for signs of toxicity.
structure (smiles),measurement,setting,value
"COc1ccc(CNc2c3c(nc4ccc(C#N)cc24)CCN(C(C)=O)C3)cc1Cl [Compound H, 2-acetyl-10-[(3-chloro-4-methoxybenzyl)amino]-1,2,3,4-tetrahydrobenzo[b][1,6]naphthyridine-8-carbonitrile]",hippocampal cGMP level,"[1]; 3 mg/kg i.p. 30 min before foot shock, 10 sec after shock",0.48 ± 0.014 pmol/mg
same,hippocampal cGMP level,"[1]; 3 mg/kg i.p. 30 min before foot shock, 60 sec after shock",0.58 ± 0.033 pmol/mg
same,hippocampal cGMP level,"[1]; 3 mg/kg i.p. 30 min before foot shock, 180 sec after shock",0.58 ± 0.044 pmol/mg
same,hippocampal cGMP level,"[1]; 10 mg/Kg i.p. 30 min before foot shock, 10 sec after shock",0.56 ± 0.033 pmol/mg
same,hippocampal cGMP level,"[1]; 10 mg/Kg i.p. 30 min before foot shock, 60 sec after shock",0.70 ± 0.028 pmol/mg
same,hippocampal cGMP level,"[1]; 10 mg/Kg i.p. 30 min before foot shock, 180 sec after shock",0.63 ± 0.013 pmol/mg
same,effect on LTP of WT slices,[2],no effect
same,effect on reference memory of WT mice (2-day RAWM),[3],no effect
same,"Cmax, brain",[4]; male C57Bl6 mice,492.25 ng/g
same,"Tmax, brain",[4]; male C57Bl6 mice,15 min
same,"Tmax, plasma",[4]; male C57Bl6 mice,15 min
same,"t1/2 elimination half-life, brain",[4]; male C57Bl6 mice,39 min
same,"t1/2 elimination half-life, plasma",[4]; male C57Bl6 mice,64.2 min
same,brain/plasma Cmax ratio,"[4]; male, C57Bl6, mouse, brain/plasma, ip, 25 mg/kg",0.31
same,MRT,"[4]; mouse, brain, ip, male C57Bl6 mice, read-out: MRT Mean Residence Time, brain",57 min
same,Cmax,"[4]; mouse, plasma, ip, male C57Bl6 mice",1570 ng/mL
same,MRT,"[4]; mouse, plasma, ip, male C57Bl6 mice, read-out: MRT Mean Residence Time, plasma",93.6 min
same,"brain sections, CD45 immunostain",[5],no signs of inflammation
same,"brain sections, GFAP immunostain",[5],no signs of gliosis
same,"brain sections, H&E",[5],did not show any signs of toxicity
same,"brain sections, LFB-PAS stain",[5],no signs of demyelination
same,"kidney sections, H&E",[5],no toxicity
same,"kidney sections, PAS stain",[5],did not show any abnormalities in the glomerular basement membrane
same,"kidney sections, trichrome stain",[5],no fibrosis
same,"liver sections, H&E",[5],did not show any signs of toxicity
same,"liver sections, trichrome stain",[5],no fibrosis or cirrhotic liver disease
same,"muscle sections, H&E",[5],no signs of toxicity
same,"muscle sections, trichrome stain",[5],no muscle fibrosis

# Reference: patent US10626113B2, “Phosphodiesterase inhibitors and uses thereof” (THE TRUSTEES OF COLUMBIA UNIVERSITY IN THE CITY OF NEW YORK, priority 2012, dated 2020)
